Patent US20260070918A1, “HETEROBICYCLIC COMPOUNDS AS EP4 RECEPTOR ANTAGONISTS” (priority 2022, published 2026)
One block for each compound: values may come before it.

Columns and labels:
[1] = target: EP4 receptor (Homo sapiens (Human), UniProt P35408); assay: EP4 receptor binding assay (inhibition of [3H]PGE2 binding); conditions: human recombinant Chem-1 cells, 1 nM [3H]PGE2, 2 hours @25° C.
Method: Transfected HEK 293(ebna) cells are maintained in culture and harvested, and membranes are prepared by differential centrifugation, following lysis of the cells in the presence of protease inhibitors, for use in receptor binding assays. Prostanoid receptor binding assays (for DP1, DP2 (CRTH2), EP1, EP2, EP3-III, EP4, FP, IP, and TP) are performed in 10 mM MES/KOH (pH 6.0) (EPs, FP and TP) or 10 mM HEPES/KOH (pH 7.4) (DPs and IP), containing 1 mM EDTA, 2.5-30 mM divalent cation and the appropriate radioligand that specifically binds to a target prostanoid receptor. Synthetic compounds are added in dimethyl sulfoxide which is kept constant at 1% (v/v) in all incubations. The reaction is initiated by addition of membrane protein. Non-specific binding is determined in the presence of 10 μM of the corresponding non-radioactive prostanoid. Incubations are conducted for 60-90 min at room temperature or 30° C. and terminated by rapid filtration. Compound binding is calculated as a % inhibition of the binding of the radioligand after subtracting nonspecific binding from total binding. The residual specific binding at each ligand concentration is calculated and expressed as a function of ligand concentration to construct sigmoidal concentration-response curve. Half maximal inhibitory concentration, IC50 values of compounds are determined by nonlinear regression analysis of the concentration-response curves using Hill equation curve fitting equation Y=D+[(A−D)/(1+C/IC50)^H], where Y=specific binding, A=left asymptote of the curve, D=right asymptote of the curve, C=compound concentration, and H=slope factor. The binding affinity of the compounds is determined by calculating the equilibrium inhibition constant (Ki) from the equation Ki═InPt/1+[radioligand]/Kd where Kd is the equilibrium dissociation constant for the radioligand: receptor interaction and InPt is the inflection point of the dose-response curves.
EP4 receptor binding assays were performed at MSD Pharma Service in Taiwan under the following assay conditions: • Source: Human recombinant Chem-1 cells • Ligand: 1 nM [^3H]

[2] = Rat pharmacokinetic (PK) assay; format: in vivo, Sprague-Dawley rat
Method: Test compound was dissolved in 10% DMSO, 40% PEG-400, and 50% water for intravenous (i.v.) and oral (p.o.) administration to rat. […] Three male animals received single p.o. doses by gavage tube (5 mg/kg). Blood samples were collected into K2-EDTA tubes from the jugular vein at 0.083, 0.25, 0.5, 1, 2, 4, 8, and 24 h post dosing. After centrifugation, plasma samples were prepared via protein precipitation and detected through LC-MS/MS. The pharmacokinetics parameters were calculated using Phoenix software V 8.3.4.

[3] = Liver microsomal stability, dog; format: in vitro ADME; conditions: pooled dog liver microsomes; for microsomal CLint: read-out: In vitro CLint; for half-life: read-out: In vitro T1/2; for CLint scaled: read-out: Scale-up CLint
Method: (§1) Microsomal stability assay is performed to understand the metabolism of the representative compounds.
(§2) In vitro microsomal stability was determined in pooled human, dog, rat, and mouse liver microsomes. Test compounds (Table 2) were incubated in the presence and absence of NADPH for 0-60 min and the amount of remaining compound was quantified through LC-MS/MS analysis.

[4] = Liver microsomal stability, rat; format: in vitro ADME; conditions: pooled rat liver microsomes; for microsomal CLint: read-out: In vitro CLint; for half-life: read-out: In vitro T1/2; for CLint scaled: read-out: Scale-up CLint
Method: as §1, §2

[5] = Liver microsomal stability, human; format: in vitro ADME; conditions: pooled human liver microsomes; for microsomal CLint: read-out: In vitro CLint; for half-life: read-out: In vitro T1/2; for CLint scaled: read-out: Scale-up CLint
Method: as §1, §2

[6] = Liver microsomal stability, mouse; format: in vitro ADME; conditions: pooled mouse liver microsomes; for microsomal CLint: read-out: In vitro CLint; for half-life: read-out: In vitro T1/2; for CLint scaled: read-out: Scale-up CLint
Method: as §1, §2

[7] = male, Sprague-Dawley, plasma, Rat iv, dose 5 mg/kg (table)
[8] = male, Sprague-Dawley, plasma, Rat po, dose 10 mg/kg (table)

Sequence of EP4 receptor (P35408 whole entry): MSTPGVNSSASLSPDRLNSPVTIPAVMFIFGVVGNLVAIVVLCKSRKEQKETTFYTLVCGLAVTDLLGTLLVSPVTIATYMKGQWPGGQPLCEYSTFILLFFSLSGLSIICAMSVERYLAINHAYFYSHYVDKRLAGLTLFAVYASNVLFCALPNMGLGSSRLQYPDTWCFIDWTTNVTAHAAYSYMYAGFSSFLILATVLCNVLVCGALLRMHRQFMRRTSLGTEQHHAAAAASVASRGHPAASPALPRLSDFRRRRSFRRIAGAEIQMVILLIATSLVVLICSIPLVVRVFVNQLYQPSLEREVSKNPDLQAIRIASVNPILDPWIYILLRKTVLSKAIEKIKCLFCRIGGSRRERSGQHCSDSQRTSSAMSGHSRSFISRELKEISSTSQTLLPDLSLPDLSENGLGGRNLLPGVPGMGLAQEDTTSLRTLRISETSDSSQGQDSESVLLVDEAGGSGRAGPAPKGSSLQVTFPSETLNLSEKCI

Compound: 3-[1-[[2-methyl-4-[[4-(trifluoromethyl)phenyl]methyl]thieno[3,2-b]pyrrole-3-carbonyl]amino]ethyl]bicyclo[1.1.1]pentane-1-carboxylic acid [Example 10]
IC50 [1]: 620 nM

Compound: O=C(O)c1ccc(C2(NC(=O)c3c(CO)sc4ccn(Cc5ccc(C(F)(F)F)cc5)c34)CC2)cc1 [Example 2, 4-[1-[[2-(hydroxymethyl)-4-[[4-(trifluoromethyl)phenyl]methyl]thieno[3,2-b]pyrrole-3-carbonyl]amino]cyclopropyl]benzoic acid]
IC50 [1]: 1.1 nM

Compound: O=C(NC1(C23CC(C(=O)O)(C2)C3)CC1)c1c(Cl)sc2ccn(Cc3ccc(C(F)(F)F)cc3)c12 [Example 5, 3-[1-[[2-chloro-4-[[4-(trifluoromethyl)phenyl]methyl]thieno[3,2-b]pyrrole-3-carbonyl]amino]cyclopropyl]bicyclo[1.1.1]pentane-1-carboxylic acid]
IC50 [1]: 28 nM

Compound: CC(NC(=O)c1c(Cl)sc2ccn(Cc3ccc(C(F)(F)F)cc3)c12)C12CC(C(=O)O)(C1)C2 (stereo not shown) [Example 9, 3-[1-[[2-chloro-4-[[4-(trifluoromethyl)phenyl]methyl]thieno[3,2-b]pyrrole-3-carbonyl]amino]ethyl]bicyclo[1.1.1]pentane-1-carboxylic acid]
IC50 [1]: 180 nM

Compound: O=C(O)c1ccc(C2(NC(=O)c3c(C(F)(F)F)sc4ccn(Cc5ccc(C(F)(F)F)cc5)c34)CC2)cc1 [Example 11, 4-(1-(2-(trifluoromethyl)-4-(4-(trifluoromethyl)benzyl)-4H-thieno[3,2-b]pyrrole-3-carboxamido)cyclopropyl)benzoic acid]
IC50 [1]: 1.2 nM

Next, values leading:

CL_obs ([2]; Rat iv, dose 5 mg/kg (table)): 2.57 mL/min/kg | Vss_obs ([2]; Rat iv, dose 5 mg/kg (table)): 1.64 L/kg | AUC(0-inf) [2, 7]: 33600 ng·h/mL | AUC(0-t) [2, 7]: 27700 ng·h/mL | C0 [2, 7]: 8380 ng/mL | MRT [2, 7]: 5.93 h | half-life [2, 7]: 568 min | AUC(0-inf) [2, 8]: 26700 ng·h/mL | AUC(0-t) [2, 8]: 23400 ng·h/mL | Cmax [2, 8]: 1830 ng/mL | MRT [2, 8]: 7.98 h | Tmax [2, 8]: 6.67 h | half-life [2, 8]: 538 min | bioavailability ([2]; male, Sprague-Dawley, plasma, Rat po, dose 10 mg/kg vs iv 5 mg/kg (table)): 42.3% | microsomal CLint [3]: 9.89 µL/min/mg | half-life [3]: 140 min | CLint scaled [3]: 24.6 mL/min/kg | microsomal CLint [4]: 13.4 µL/min/mg | half-life [4]: 104 min | CLint scaled [4]: 24 mL/min/kg | microsomal CLint [5]: 11.4 µL/min/mg | half-life [5]: 122 min | CLint scaled [5]: 14.3 mL/min/kg | microsomal CLint [6]: 15 µL/min/mg | half-life [6]: 92.3 min | CLint scaled [6]: 66.1 mL/min/kg | IC50 [1]: 0.25 nM
Compound: O=C(O)c1ccc(C2(NC(=O)c3c(Cl)sc4ccn(Cc5ccc(C(F)(F)F)cc5)c34)CC2)cc1 [Example 1, 4-[1-[[2-chloro-4-[[4-(trifluoromethyl)phenyl]methyl]thieno[3,2-b]pyrrole-3-carbonyl]amino]cyclopropyl]benzoic acid]

microsomal CLint [3]: 3.2 µL/min/mg | half-life [3]: 434 min | CLint scaled [3]: 7.97 mL/min/kg | microsomal CLint [4]: 8.4 µL/min/mg | half-life [4]: 165 min | CLint scaled [4]: 15 mL/min/kg | microsomal CLint [5]: 4.03 µL/min/mg | half-life [5]: 344 min | CLint scaled [5]: 5.05 mL/min/kg | microsomal CLint [6]: 6.85 µL/min/mg | half-life [6]: 202 min | CLint scaled [6]: 30.1 mL/min/kg | IC50 [1]: 0.48 nM
Compound: O=C(O)c1ccc(C2(NC(=O)c3c(F)sc4ccn(Cc5ccc(C(F)(F)F)cc5)c34)CC2)cc1 [Example 3, 4-(1-(2-fluoro-4-(4-(trifluoromethyl)benzyl)-4H-thieno[3,2-b]pyrrole-3-carboxamido)cyclopropyl)benzoic acid]

microsomal CLint [3]: 6.06 µL/min/mg | half-life [3]: 229 min | CLint scaled [3]: 15.1 mL/min/kg | microsomal CLint [4]: 11.1 µL/min/mg | half-life [4]: 125 min | CLint scaled [4]: 19.8 mL/min/kg | microsomal CLint [5]: 3.24 µL/min/mg | half-life [5]: 428 min | CLint scaled [5]: 4.06 mL/min/kg | microsomal CLint [6]: 10.6 µL/min/mg | half-life [6]: 131 min | CLint scaled [6]: 46.7 mL/min/kg | IC50 [1]: 0.35 nM
Compound: COc1sc2ccn(Cc3ccc(C(F)(F)F)cc3)c2c1C(=O)NC1(c2ccc(C(=O)O)cc2)CC1 [Example 4, 4-(1-(2-methoxy-4-(4-(trifluoromethyl)benzyl)-4H-thieno[3,2-b]pyrrole-3-carboxamido)cyclopropyl)benzoic acid]

IC50 [1]: 8.4 nM
Compound: O=C(NC1(C23CCC(C(=O)O)(CC2)CC3)CC1)c1c(Cl)sc2ccn(Cc3ccc(C(F)(F)F)cc3)c12 [Example 6, 4-[1-[[2-chloro-4-[[4-(trifluoromethyl)phenyl]methyl]thieno[3,2-b]pyrrole-3-carbonyl]amino]cyclopropyl]bicyclo[2.2.2]octane-1-carboxylic acid]

IC50 [1]: 50 nM
Compound: Cc1sc2ccn(Cc3ccc(C(F)(F)F)cc3)c2c1C(=O)NC1(C23CC(C(=O)O)(C2)C3)CC1 [Example 7, 3-[1-[[2-methyl-4-[[4-(trifluoromethyl)phenyl]methyl]thieno[3,2-b]pyrrole-3-carbonyl]amino]cyclopropyl]bicyclo[1.1.1]pentane-1-carboxylic acid]

IC50 [1]: 4.9 nM
Compound: Cc1sc2ccn(Cc3ccc(C(F)(F)F)cc3)c2c1C(=O)NC1(C23CCC(C(=O)O)(CC2)CC3)CC1 [Example 8, 4-[1-[[2-methyl-4-[[4-(trifluoromethyl)phenyl]methyl]thieno[3,2-b]pyrrole-3-carbonyl]amino]cyclopropyl]bicyclo[2.2.2]octane-1-carboxylic acid]
